Measurements published in patent US7371539B2 (priority 2003, dated 2008).
Entries after “also recorded” stand apart in the source; their conditions may differ.

Tests used:
Tor-His3 reporter = test: Western assay of reporter degradation in liquid culture after cycloheximide (in vivo); type: cell-based, S. cerevisiae; details: PS-341 200 μM; Δpdr5 strains Pre10-FPR1 and Rpn10-FPR1
Experimental: The aforementioned growth assay was a convenient tool for isolating strains to further explore DTL. […] To address this point, degradation of the reporters was directly measured. Strains Pre10-FPR1 and Rpn10-FPR1 were singly transformed with plasmids that expressed hemagglutinin (HA) epitope-tagged versions of Tor-His3 and TorS1972R-His3. The transformants were grown in liquid culture to early log phase, whereupon cycloheximide was added to halt protein translation. Each culture was then split in two and rapamycin was added to one. Samples were collected at various times and whole-cell protein extracts were generated and used for Western analysis (FIGS. 4A-4H). […] These experiments confirm that the growth deficient phenotype seen on histidine-dropout media was due to the degradation of the Tor-His3 reporter and that the 26S proteasome is necessary for this to occur.
In both assays, rapamycin was added to a final concentration of 1 μM, cycloheximide was added to a final concentration of 30 ng/ml and PS-341 was added to a final concentration of 200 μM. For liquid cultures, samples were extracted at fixed time intervals (0, 30, 60, 90 minutes) and whole cell extracts were made. 25 μg of total protein was used from each sample, resolved by SDS-PAGE and transferred to PVDF membranes. […]

[1] = test system: T1, Tor-His3 with purified 26S proteasomes from strain Rpn10-FPR1; test: In vitro degradation assay with purified 26S proteasomes and purified reporter; type: biochemical, S. cerevisiae; details: PS-341 100 μM, rapamycin 1 μM
T1 construct: made in house; host or cells: reporter: E. coli DH5αPRO (PROTet.133 vector)
Excerpt: Whole, functional 26S proteasomes have been previously affinity-purified for use in biochemical assays (Leggett et al. (2002) Mol. Cell 10:495). The same procedure was used to isolate proteasomes from strain Rpn10-FPR1. HA epitope-tagged versions of Tor-His3 and TorS1972R-His3 were purified from a bacterial expression system and then mixed with the proteasomes, with or without rapamycin. Samples were extracted at regular intervals and reporter degradation was monitored by Western analysis (FIG. 5A). […] Once again, proteolysis of Tor-His3 could be halted upon the addition of the proteasome inhibitor PS-341.
26S proteasomes were affinity purified from strains Pre10-FPR1 and Rpn10 FPR1 using the Rpn11-TEV-ProA tag described previously (Leggett et al. (2002) Mol. Cell 10:495). Cells were grown in YPD, harvested, resuspended in 50 mM Tris-HCl [pH 8], 1 mM EDTA and lysed by French press. Lysates was centrifuged at 15,000×g for 25 minutes, filtered and incubated with IgG resin (ICN) for 1 hr at 4° C. Resin was collected in a column, washed with 100 bed volumes of 50 mM Tris-HCl [pH 8], 50 mM NaCl, 1 mM EDTA buffer and equilibrated with TEV-protease buffer (50 mM Tris-HCl [pH 7.5], 1 mM EDTA, 1 mM DTT). […] The integrity of the 26S complexes and presence of Pre10-FPR1 and Rpn10-FPR1 tagged subunits was analyzed by Coomassie staining, SDS-PAGE and immunodetection. […]

Compound: CC(C)C[C@H](NC(=O)[C@H](Cc1ccccc1)NC(=O)c1cnccn1)B(O)O [PS-341]
- effect on degradation of Tor-His3 in the presence of rapamycin (Tor-His3 reporter): prevented Tor-His3 from degrading; also recorded: halted degradation of Tor-His3
- effect on proteolysis of Tor-His3 in vitro [1]: halted
